Data taken from ChEMBL document CHEMBL1255318, “Effect of low-dose ritonavir on the pharmacokinetics of the CXCR4 antagonist AMD070 in healthy volunteers” (Antimicrob Agents Chemother, 2008).

Tests used:
Format in all cases: ADME, organism-based
[1] = Tmax in […] at […], po administered as single dose measured on day 17 by HPLC in presence of 29 doses of […]; conditions: human, in vivo
[2] = AUC in rat in presence of ritonavir; conditions: plasma
[3] = Apparent volume of distribution during terminal phase in […] at […], po administered as single dose measured on day 1 by HPLC; parameters: route oral; conditions: human, in vivo, read-out: Vz/F
[4] = Apparent volume of distribution during terminal phase in […] at […], po administered as single dose measured on day 17 by HPLC in presence of 29 doses of […]; conditions: human, in vivo, read-out: Vz/F
[5] = AUC (0 to infinity) in […] at […], po administered as single dose measured on day 1 by HPLC; parameters: route oral, time infinity; conditions: human, plasma
[6] = Apparent volume of distribution during terminal phase in […] at […], po administered as single dose measured on day 3 by HPLC in presence of […]; conditions: human, in vivo, read-out: Vz/F
[7] = Tmax in […] at […], po administered as single dose measured on day 3 by HPLC in presence of […]; conditions: human, in vivo
[8] = Oral bio availability in rat in presence of ritonavir; conditions: in vivo
[9] = Cmax in […] at […], po administered as single dose measured on day 3 by HPLC in presence of […]; parameters: route oral; conditions: human, in vivo
[10] = Tmax in […] at […], po administered as single dose measured on day 1 by HPLC; parameters: route oral; conditions: human, in vivo
[11] = AUC (0 to infinity) in […] at […], po administered as single dose measured on day 17 by HPLC in presence of 29 doses of […]; parameters: route oral, time infinity; conditions: human, plasma
[12] = AUC (0 to infinity) in […] at […], po administered as single dose measured on day 3 by HPLC in presence of […]; parameters: time infinity, route oral; conditions: human, plasma
[13] = Cmax in rat in presence of ritonavir; conditions: in vivo
[14] = Cmax in […] at […], po administered as single dose measured on day 17 by HPLC in presence of 29 doses of […]; parameters: route oral; conditions: human, in vivo
[15] = Cmax in […] at […], po administered as single dose measured on day 1 by HPLC; parameters: route oral; conditions: human, in vivo

NCCCCN(Cc1nc2ccccc2[nH]1)[C@H]1CCCc2cccnc21 [MAVORIXAFOR]
Tmax [1]: 1 h | AUC [2]: 58 ng·h/mL | Vd/F [3]: 4200 L | Vd/F [4]: 3930 L | AUC(0-inf) [5]: 934 ng·h/mL | Vd/F [6]: 3450 L | Tmax [7]: 2 h | bioavailability [8]: 66% | Cmax [9]: 362 ng/mL | Tmax [10]: 3 h | AUC(0-inf) [11]: 1200 ng·h/mL | AUC(0-inf) [12]: 1640 ng·h/mL | Cmax [13]: 158 ng/mL | Cmax [14]: 333 ng/mL | Cmax [15]: 256 ng/mL
